Data reported in publication PMC3591457, “Biodistribution and Elimination Study of Fluorine-18 Labeled N^ε-Carboxymethyl-Lysine following Intragastric and Intravenous Administration” (PLoS ONE, 2013).
Where “and” joins values, the source holds several entries; their conditions need not be identical. Equal values may be shown once.

What was measured:
HepG2 cells = experiment: Cell uptake of ^18F-CML and native CML in HepG2 cells; format: cell-based; details: n=3, P<0.01, blocking with non-radioactive CML
Procedure: To compare the different bioactivities of CML and ^18F-CML, two cell lines were evaluated for their capacity to take up native CML and the fluorobenzoylated derivative ^18F-CML. RAW264.7 macrophages and HepG2 liver cells were cultured in DMEM/LOWGLUCOSE, supplemented with 10% fetal bovine serum (FBS), 4.0 mmol/L L-glutamine, 110 mg/L sodium pyruvate, 100 U/mL penicillin, and 100 mg/L streptomycin at 37°C and 5% CO2.
For ^18F-CML cell uptake studies, RAW264.7 cells and HepG2 cells were seeded into 24-well plates at a density of 4×10^5 cells per well. Radio-tracer ^18F-CML (0.5 µCi/well, 3 µmol/mL) was incubated in a 37°C water bath for 15, 30, 60, and 120 min. At each time point the cells were washed 3 times with phosphate-buffered saline (PBS). The supernatant, washing-up liquid (unbound activity) and the pellet (cell-bound activity) were transferred to new tubes. Triplicates of the counting tubes containing supernatant and cell pellet were counted individually using a gamma counter for 1 min. For the blocking experiment, the uptake was carried out in the presence of the non-radioactive CML(10 µmol/mL) and processed similarly as described above. The uptake (%) of radio-tracer into the cell was determined using a gamma counter according to the following equation: [drawing 1]
For CML cell uptake ratio studies, unaltered CML (10 µmol/mL) was added to RAW264.7 and HepG2 cell pellets individually. The total proteins of each cell line were initially extracted from the lysates of 4×10^5 cells. […] The supernatants were purified and detected usingby the method described by Drusch et al., which uses an RP-HPLC method with an ortho-phthaldialdehyde (OPA)-derivatisation and fluorescence detection suited for automation. The HPLC analysis method used a 250 mm×4.6 mm C18 column (GROM-SIL 100 ODS-0 AB, Herrenberg, Germany) and detected the fluorescence excitation at 340 nm and emission at 455 nm. The peak identification of CML was confirmed by the retention time and standard addition and was quantified using an external standard. The amount of CML was calculated and expressed as a percentage.

[1] = microPET imaging after intravenous administration; format: in vivo, ICR mice; details: after intravenous injection
Procedure: After adjusting the animal board position, 0.15 mL of an ^18F-CML solution was administered intravenously via the tail vein. The solution of ^18F-CML was prepared just prior to the intravenous administration. The dose of ^18F-CML was adjusted to approximately 80 µCi per mouse (n = 4), and the pH of the solution was adjusted to 7.4. Here, the specific activity corresponded to 3 MBq/nmol. Dynamic PET images were acquired continuously for 2 hours.
(§1) Dynamic PET studies were performed using a dedicated microPET scanner for small animals. For imaging studies, the animals were under isoflurane anesthesia and then positioned and immobilized supine with their medial axis parallel to the axial axis of the scanner with the thorax and abdominal region (organs of interest: heart, liver, and kidneys) in the center of the field of view.
(§2) Approximately 5 min was needed to set the position of the animals after intragastric or intravenous administration of the drug solution containing ^18F-CML. Then, the emission data were acquired for 120 min. An attenuation map was created for each mouse by intravenously administering the residual ^18F-CML after acquisition of the emission data. The acquired data were sorted into dynamic sinograms. […] The quantitative analyses of the hepatic and renal distributions of ^18F-CML were performed using ASIPro installed in the PET system.

[2] = microPET imaging after intragastric administration; format: in vivo, ICR mice
Procedure: Male ICR mice weighing 18–20 g (7–8 wks old, n = 4) were kept fasting for 14 h […] and had free access to water before the experiments that followed. For the experiment, the mice were anesthetized and unconsciousness was maintained with a mixture of 1.5% isoflurane and nitrous oxide∶oxygen (7∶3). Approximately 3.0 MBq (80 µCi) of ^18F-labeled CML was administered via the gastrointestinal route. Five-minute static PET images were acquired at 15, 30, 60, 120 and 150 min post-injection.
as §1
as §2, with “data.” for “data. The acquired data were sorted into dynamic sinograms.”

[3] = Biodistribution after intravenous administration; format: in vivo, ICR mice; details: for Uptake in bladder, percentage of injected dose per whole tissue / Uptake in brain, percentage of injected dose per whole tissue / Uptake in heart, percentage of injected dose per whole tissue / Uptake in intestines, percentage of injected dose per whole tissue / Uptake in kidneys, percentage of injected dose per whole tissue / Uptake in liver, percentage of injected dose per whole tissue / Uptake in lungs, percentage of injected dose per whole tissue / Uptake in muscles, percentage of injected dose per whole tissue / Uptake in pancreas, percentage of injected dose per whole tissue / Uptake in stomach, percentage of injected dose per whole tissue: intravenous administration, n=3, mean ± SD
Procedure: The biodistribution of ^18F-CML was studied in eighteen young male ICR mice with a weight range of 18–20 g. Nine mice were used for intravenous administration and the other nine mice were used for intragastric administration.
For intravenous administration, ^18F-CML was injected into a lateral tail vein of the animals under light ether anesthesia. The injection volume (2–3 MBq; radiochemical purity 96%) was 0.1 mL. For intragastric administration, 1.5 MBq of ^18F-labeled CML was given via gastrointestinal tract tract.
The mice were sacrificed at 5, 60, and 120 min after administration of ^18F-CML (three mice at each time point). The animals were sacrificed by heart puncture under ether anaesthesia. The tissues and organs of interest were isolated and counted in a well-type γ counter. Additionally, 200 µL of blood was taken from the carotid artery. The distributions of ^18F-CML in different tissues and organs were calculated and expressed as the percent uptake of the injection dose per whole tissue (% ID).

[4] = intravenous, 60 min post-injection

Duration of continued accumulation of radioactivity in the kidneys (PET) [1]: approximately 60 min
Localization of radioactivity (PET) ([2]; first 15 min after administration via stomach tube): completely localized in the stomach
Resorption of radioactivity from the small intestine (PET) ([2]; within 2 h after application via stomach tube): not observed
Radioactivity in stomach, lungs, liver and intestines taken together, of the total injected dose ([3]; intravenous): less than 10%
Uptake in bladder, percentage of injected dose per whole tissue ([3]; 5 min): 26.50±1.70 %ID
Uptake in brain, percentage of injected dose per whole tissue ([3]; 5 min): 3.04±0.02 %ID
Uptake in heart, percentage of injected dose per whole tissue ([3]; 5 min): 11.15±0.05 %ID
Uptake in intestines, percentage of injected dose per whole tissue ([3]; 5 min): 1.02±0.05 %ID
Uptake in kidneys, percentage of injected dose per whole tissue ([3]; 5 min): 29.30 %ID and 29.30±2.05 %ID
Uptake in liver, percentage of injected dose per whole tissue ([3]; 5 min): 17.28±2.04 %ID
Uptake in lungs, percentage of injected dose per whole tissue ([3]; 5 min): 1.65±0.05 %ID
Uptake in muscles, percentage of injected dose per whole tissue ([3]; 5 min): 8.02±0.82 %ID
Uptake in pancreas, percentage of injected dose per whole tissue ([3]; 5 min): 0.9±0.04 %ID
Uptake in stomach, percentage of injected dose per whole tissue ([3]; 5 min): 0.35±0.02 %ID
Uptake in bladder, percentage of injected dose per whole tissue ([3]; 60 min): 41.28±3.50 %ID
Uptake in brain, percentage of injected dose per whole tissue ([3]; 60 min): 0.38±0.01 %ID
Uptake in heart, percentage of injected dose per whole tissue ([3]; 60 min): 5.05±0.01 %ID
Uptake in intestines, percentage of injected dose per whole tissue ([3]; 60 min): 2.35±0.01 %ID
Uptake in kidneys, percentage of injected dose per whole tissue ([3]; 60 min): 35.6 %ID and 35.6±4.06 %ID
Uptake in liver, percentage of injected dose per whole tissue ([3]; 60 min): 9.72±1.62 %ID
Uptake in lungs, percentage of injected dose per whole tissue ([3]; 60 min): 1.12±0.02 %ID
Uptake in muscles, percentage of injected dose per whole tissue ([3]; 60 min): 5.17±1.12 %ID
Uptake in pancreas, percentage of injected dose per whole tissue ([3]; 60 min): 0.01±0.0 %ID
Uptake in stomach, percentage of injected dose per whole tissue ([3]; 60 min): 0.02±0.01 %ID
Uptake in bladder, percentage of injected dose per whole tissue ([3]; 120 min): 72.30±5.20 %ID
Uptake in brain, percentage of injected dose per whole tissue ([3]; 120 min): 0.07±0.00 %ID
Uptake in heart, percentage of injected dose per whole tissue ([3]; 120 min): 1.03±0.00 %ID
Uptake in intestines, percentage of injected dose per whole tissue ([3]; 120 min): 0.5±0.00 %ID
Uptake in kidneys, percentage of injected dose per whole tissue ([3]; 120 min): 18.1 %ID and 18.1±2.65 %ID
Uptake in liver, percentage of injected dose per whole tissue ([3]; 120 min): 3.28±0.05 %ID
Uptake in lungs, percentage of injected dose per whole tissue ([3]; 120 min): 0.25±0.00 %ID
Uptake in muscles, percentage of injected dose per whole tissue ([3]; 120 min): 3.02±0.82 %ID
Uptake in pancreas, percentage of injected dose per whole tissue ([3]; 120 min): 0.00±0.02 %ID
Uptake in stomach, percentage of injected dose per whole tissue ([3]; 120 min): 0.01±0.00 %ID
Injected dose found in the urine and stomach, lungs, liver and intestines [3, 4]: less than 50%
Remaining radioactivity located in the circulating blood [3, 4]: approximately 8%
Compound: O=C(O)CNCCCCC(NC(=O)c1ccc([18F])cc1)C(=O)O (stereo not shown) [^18F-CML]
Uptake of radioactivity in untreated cells relative to unlabelled CML-treated (blocked) cells (HepG2 cells): 1.6 fold
